The values that follow come from ChEMBL document CHEMBL1201862, “PubChem BioAssay data set” (2004).

The structures appear in SMILES notation.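 Assay format: 96-well plates, 48-hour exposure. Here, GI50 denotes the concentration required for 50% inhibition of growth.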 Calls of active or inactive are those of the source. No stated cut-off is given here; in the data, active = GI50 up to about 1.1 µM and inactive = higher.

Some test systems named below: XF498; HOP-18; SR; RXF 631; LXFL 529; BT-549; MDA-MB-231; Hs-578T; MDA-N.
Holding throughout (assay): DTP human tumour cell line panel, 48 h

Consider `C#CCn1c(=O)c(C#N)c(O)c2cc3ccccc3nc21`, for which the GI50 with XF498 and in the assay on HOP-18 was > 100 µM (inactive) throughout.

As to `COc1c2c(c(O)c3c4c(c(C)cc13)C1OC3(C(OC)OC5CC(C)(O)C(OC6CC(C)(O)C(O)C(C)O6)C(C)O5)OC1C(OC)(O4)C31CO1)C(=O)C(O)CC2OC1CC(C)(O)C(OC(C)=O)C(C)O1` (centres undefined), the GI50 in the assay with SR, in the assay on XF498, with RXF 631, in the assay on LXFL 529 and with HOP-18 was < 0.01 µM (active) in each case.

Regarding `CSC(=N)NNC(=O)CCC(=O)Nc1ccccc1C(F)(F)F`, the GI50 in the assay with SR, in the assay with LXFL 529 and in the assay on HOP-18 was > 100 µM (inactive) each time.

With `COC(=O)c1c2n(c3ccccc13)C[C@H]1OC(C)(C)O[C@@H]21`, the GI50 in the assay on SR, in the assay with BT-549, in the assay with MDA-MB-231 and with Hs-578T was > 100 µM (inactive) each time.

In the case of `CC(=O)OCCCCn1cnc2nc(Nc3ccccc3)nc(Cl)c21`, the GI50 with SR was > 100 µM (inactive); in the assay on MDA-N, 31.2 µM (inactive); in the assay on BT-549, 26.9 µM (inactive); with MDA-MB-231, 35.2 µM (inactive); with Hs-578T it was 36.2 µM (inactive).

On to `C(/C=N/c1ccccc1)=C(/Nc1ccccc1)C12CC3CC(CC(C3)C1)C2`, for which the GI50 is 11 µM (inactive) in the assay on SR; 13.8 µM (inactive) with MDA-N; 16.6 µM (inactive) in the assay on BT-549; 16.3 µM (inactive) in the assay on MDA-MB-231; 37.5 µM (inactive) in the assay with Hs-578T.

Turning to `CCN(CC)CC(=N)N(CC)c1ccccc1`, the GI50 in the assay on XF498, in the assay with LXFL 529 and in the assay with HOP-18 was > 100 µM (inactive) each time.

In the case of `OCCOCn1nc(-c2ccccc2)nc1-c1cnccn1`, the GI50 in the assay on SR, with MDA-N, with BT-549 and in the assay with MDA-MB-231 was > 100 µM (inactive) in each case.

Take `OC12c3ccccc3C1CCCCCC21OCCCO1` (centres undefined): the GI50 in the assay on LXFL 529 and with HOP-18 was > 100 µM (inactive) throughout.

In the case of `CCN(CC)Cc1ccc2cccnc2c1O`, the GI50 in the assay on SR is 0.995 µM (active); in the assay on MDA-N, 10.6 µM (inactive); with BT-549, 37.1 µM (inactive); with MDA-MB-231, 5.53 µM (inactive); with Hs-578T, 25.4 µM (inactive).

Take `O=C1NC(c2cccc3ccccc23)Nc2ccc(O)cc21` (centres undefined): the GI50 is 24.7 µM (inactive) with XF498 and 43.3 µM (inactive) in the assay with HOP-18.

With `CCN1CCC(O)(/C=C/c2ccccc2C)C(C(=O)/C=C/c2ccccc2C)C1` (centres undefined), the GI50 in the assay on SR was 2.72 µM (inactive); with MDA-N, 2.67 µM (inactive); in the assay on BT-549 it was 2.84 µM (inactive); with MDA-MB-231, 2.55 µM (inactive); in the assay on Hs-578T, 3.76 µM (inactive).

Turning to `O=Cc1ccc(CCl)cc1`, the GI50 with SR was 19.5 µM (inactive); with XF498, 20 µM (inactive); in the assay on RXF 631, 3.16 µM (inactive); in the assay on LXFL 529 it was 16.2 µM (inactive); in the assay with HOP-18, 14.4 µM (inactive).

With `Nc1ccc(C2(c3ccc(N)cc3)C3CC4CC(C3)CC2C4)cc1`, the GI50 in the assay on SR was 14.5 µM (inactive); with MDA-N it was 18.6 µM (inactive); with BT-549, 11.2 µM (inactive); with MDA-MB-231 it was 17.4 µM (inactive).

Turning to `COc1ccc(/C=C/c2cnccn2)cc1OC`, the GI50 in the assay on MDA-N, with BT-549, with MDA-MB-231 and in the assay with Hs-578T was > 10 µM (inactive) in each case.

Consider `O=C(NC1C2CC3CC(C2)CC1C3)c1cc(/C=C/c2ccccc2)nc(S)n1` (centres undefined), for which the GI50 in the assay on SR, in the assay on XF498, in the assay with RXF 631 and with LXFL 529 was > 100 µM (inactive) each time.

Consider `O=C(NC1C(O)C(O)C(CO)OC1n1cc(F)c(=O)[nH]c1=O)OCc1ccccc1` (centres undefined), for which the GI50 with SR, with RXF 631, with LXFL 529 and with HOP-18 was > 100 µM (inactive) each time.

In the case of `CCCCC(NC(=O)CC)C(=O)O` (centres undefined), the GI50 in the assay with XF498 and in the assay on HOP-18 was > 100 µM (inactive) in each case.

Take `CCN(CC)CCN(C(=O)c1ccc(F)cc1)c1ccccc1N`: the GI50 with SR, in the assay on MDA-N, in the assay on MDA-MB-231 and in the assay on Hs-578T was > 10 µM (inactive) throughout.

Take `COc1cc(C2c3cc4c(cc3OC(N3CCCCC3)C2C)OCO4)cc(OC)c1OC` (centres undefined): the GI50 is 3.27 µM (inactive) in the assay on SR; 0.723 µM (active) with MDA-N; 18.9 µM (inactive) with BT-549; 4.98 µM (inactive) in the assay on MDA-MB-231; 2.09 µM (inactive) with Hs-578T.

Regarding `CC1CCC(O)/C=C/C(=O)OC(C)C(O)/C=C/C(=O)O1` (centres undefined), the GI50 was 51.5 µM (inactive) in the assay with SR; > 95.9 µM (inactive) in the assay with MDA-N; 41.8 µM (inactive) with BT-549; > 100 µM (inactive) with MDA-MB-231; > 100 µM (inactive) with Hs-578T.

Consider `CCC1C(c2ccccc2O)c2cc3c(cc2OC1N1CCOCC1)OCO3` (centres undefined), for which the GI50 in the assay on SR is 14.5 µM (inactive); in the assay with MDA-N it was 12.8 µM (inactive); in the assay with BT-549 it was 15.6 µM (inactive); in the assay with MDA-MB-231 it was 16.8 µM (inactive); in the assay on Hs-578T, 15.9 µM (inactive).

In the case of `CCOC(=O)c1c2ccccc2n2c(=O)n(-c3ccccc3)nnc12`, the GI50 in the assay on MDA-N was > 42.4 µM (inactive); in the assay with BT-549, > 100 µM (inactive); with MDA-MB-231, > 100 µM (inactive); in the assay with Hs-578T, > 100 µM (inactive).

Turning to `CC(C)=CCc1c(OC(=O)c2c(C)cc(O)cc2O)cc(CO)c(CO)c1O`, the GI50 in the assay on SR was 20.7 µM (inactive); with MDA-N it was 19.1 µM (inactive); in the assay with BT-549, 18.7 µM (inactive); in the assay on MDA-MB-231, 15.5 µM (inactive); in the assay with Hs-578T, 20.1 µM (inactive).

As for `CC(C)(C)[Si](C)(C)OC1CCOC1(O)c1ccccn1` (centres undefined), the GI50 with MDA-N, with BT-549, in the assay on MDA-MB-231 and in the assay on Hs-578T was > 100 µM (inactive) throughout.

Turning to `O=C(O)C(C(=O)O)P(=S)(S)c1ccccc1` (centres undefined), the GI50 in the assay with SR is > 73.5 µM (inactive); in the assay with MDA-N, > 100 µM (inactive); in the assay with XF498, > 100 µM (inactive); in the assay on BT-549 it was > 100 µM (inactive); with MDA-MB-231, > 100 µM (inactive); in the assay on RXF 631 it was > 100 µM (inactive). Besides, the GI50 in the assay with LXFL 529 and in the assay with Hs-578T was > 100 µM (inactive) each time.

On to `NCCCCN(CCCN)Cc1ccccc1`, for which the GI50 in the assay on BT-549, with MDA-MB-231 and in the assay with Hs-578T was > 100 µM (inactive) in each case.

Consider `Nc1ncnc2c1ncn2C=C=CCO`, for which the GI50 in the assay on SR, in the assay with MDA-N, in the assay on BT-549, with MDA-MB-231 and with Hs-578T was > 100 µM (inactive) each time.

For `COc1ccc(-c2nnc(-c3nsc4ccccc34)o2)cc1`, the GI50 is 31.9 µM (inactive) in the assay on SR, 54.5 µM (inactive) with LXFL 529 and 0.571 µM (active) with HOP-18.

Regarding `Oc1cc(-c2ccccc2)nc2c(S)cccc12`, the GI50 was > 100 µM (inactive) in the assay with SR; > 100 µM (inactive) in the assay on MDA-N; > 100 µM (inactive) in the assay with BT-549; 62.5 µM (inactive) in the assay with MDA-MB-231; > 100 µM (inactive) with Hs-578T.

`Cc1c2cc[n+](C)cc2c(C)c2c1[nH]c1ccc(O)cc12` [ELLIPTINIUM ACETATE]: the GI50 with MDA-N was 47.8 µM (inactive); with BT-549, 3.71 µM (inactive); in the assay with MDA-MB-231, 50.9 µM (inactive); in the assay with HOP-18, 14.3 µM (inactive); in the assay with Hs-578T it was 0.387 µM (active).
